The source of these data is patent US8802712B2, “Pyrazoloquinolines” (Merck Patent GmbH, priority 2010, dated 2014).

Series [1] deals with T1, DNA-PK (Homo sapiens (Human), UniProt P78527). Briefly: DNA-PK/Biochemical Assay (FlashPlate kinase assay). The settings on record: 5 μM ATP, 90 min, room temperature.
The test system of series [2] is colorectal carcinoma cell line HCT116. Description: Cellular Colony Growth Test with X-ray irradiation. The series is classed as cell-based. The conditions noted are these: Homo sapiens, HCT-116, 4.8 Gy X-rays. The method, then:
Cellular Colony Growth Test The colorectal carcinoma cell line HCT116 was cultivated in MEM alpha medium with 10% oif foetal calf serum, 1 mM sodium pyruvate and 2 mM glutamine at 37° C. and 10% CO2. The cells were detached from the base of the culture vessels with the aid of trypsine/EDTA, centrifuged off in centrifuge tubes and taken up in fresh medium. The cell density was subsequently determined. 300 cells were sown out in 6-well cell culture plates in 2 ml of culture medium and cultivated overnight. Next day, the cells were treated with test substances for one hour before the cell culture plates were treated with defined doses of X-rays (in general 0, 2.4, 4.8, 12 Gray; irradiation instrument: Faxitron RX-650; Faxitron X-Ray LLC, USA). In order to determine the dose/effect relationships, the cells were treated with various concentrations of a test substance. After irradiation, the cells are cultivated for a further 24 hours in the presence of the test substance, the culture medium was then replaced with culture medium without test substance, and the cells were cultivated for a further 6-8 days. The cell colonies formed were subsequently stained with the aid of Crystal Violet and counted in a colony counter (Gelcount, Oxford Optronics, UK). Dose/effect curves, in particular IC50 values, were determined using a curve adaptation function for nonlinear dose/effect relationships.

In series [3] the test system is CHK2 phosphorylation at threonine 68 in HCT116 cells. Description: Cellular CHK2 Phosphorylation at Threonine 68. In kind it is cell-based. The settings on record: Homo sapiens, HCT-116, 6 h; HCT116, 10 μM bleomycin, six hours, ELISA; read-out: IC50 (CHK2 phospho-threonine 68). The method, then:
Cellular CHK2 Phosphorylation at Threonine 68
HCT116 cells were cultivated in MEM alpha medium with 10% of foetal calf serum, 1 mM sodium pyruvate and 2 mM glutamine at 37° C. and 10% CO2. The cells were detached from the base of the culture vessels with the aid of trypsine/EDTA, centrifuged off in centrifuge tubes and taken up in fresh medium. The cell density was subsequently determined. 50,000 cells were sown per cavity of a 96-well cell culture plate in 0.1 ml of culture medium and cultivated overnight. Next day, 10 μM bleomycin and test substances in fresh culture medium were added to the cells and these were cultivated for a further six hours. After lysis of the cells, phospho-threonine 68 of the CHK2 kinase was detected in the lysates with the aid of a phospho-CHK2 (Thr68)-specific ELISA detection system (Catalogue No. 7037, Cell Signaling Technologies, USA). The ELISA colour reaction was measured spectrophotometrically at 450 nm. The extinction of the unstimulated controls (vehicle control without bleomycin) was subtracted from the extinction values of the treatment groups. The controls which were treated with bleomycin were set equal to 100% and all other extinction values were set in relation thereto. IC50 values were determined with the aid of the GraphPad Prism statistics program (GraphPad Software, USA) or Assay Explorer (Symyx Technologies Inc., USA).
(In an ELISA, binding on a coated surface is turned into a signal by an enzyme label.)

Series [4] has as its system kinases of the PI3K isoenzyme family. The conditions noted are these: cited from earlier work.
Series [5] concerns the target T1, DNA-PK. The settings on record: 5.0 mM ATP; cited from earlier work.
For the next series, the system named is mammal cells. The conditions noted are these: in cellular terms; cited from earlier work.
Series [6] addresses T1, DNA-PK. The conditions noted are these: ATP-competitive; cited from earlier work.

Where two headings read alike, the source gives them in different places.

The term IC50 denotes the concentration that gives 50% inhibition. By melting point is commonly meant the temperature, or range, at which the solid turns liquid. Regarding `CCN1CCN(CCNC(=O)C(Oc2cc3c(cc2OC)ncc2c3c(-c3ccc(C#N)cc3)nn2C)c2ccc(F)cc2)CC1` (stereo not drawn) [Compound 48, 2-[1-(4-Cyano-phenyl)-7-methoxy-3-methyl-3H-pyrazolo-[3,4-c]quinolin-8-yloxy]-N-[2-(4-ethyl-piperazin-1-yl)ethyl]-2-(4-fluorophenyl)-acetamide], the melting point was in the range of 110 to 112 °C. Moreover, the IC50 against DNA-PK [1] lay within 100 to 500 nM.
As for `CCn1nc(-c2ccc(C#N)cc2)c2c3cc(OC)c(OC)cc3ncc21` [Compound 56, 4-(7,8-Dimethoxy-3-ethyl-3H-pyrazolo[3,4-c]quinolin-1-yl)-benzonitrile], the melting point turned out to be 227.4 °C. For the same molecule, the IC50 against DNA-PK [1] was less than 100 nM.
On the same counts, the results for `COc1cc2ncc3[nH]nc(-c4ccc(C#N)c(N5CCCC5)c4)c3c2cc1OC` [Compound 70, 4-(7,8-Dimethoxy-3H-pyrazolo[3,4-c]quinolin-1-yl)-2-pyrrolidin-1-yl-benzonitrile] are 291 °C (dec.) and less than 100 nM.
In series [2], `COc1cc2ncc3c(c(-c4ccc(C#N)cc4F)nn3C)c2cc1OC` [Compound 90, 4-(7,8-Dimethoxy-3-methyl-3H-pyrazolo-[3,4-c]quinolin-1-yl)-3-fluorobenzonitrile] yielded an IC50 of 100 to 500 nM.
`COc1cc2ncc3c(c(-c4ccc(C#N)cc4F)nn3C)c2cc1OC(C(N)=O)c1ccccc1` (stereo not drawn) [Compound 91, 2-[1-(4-Cyano-2-fluoro-phenyl)-7-methoxy-3-methyl-3H-pyrazolo[3,4-c]-quinolin-8-yloxy]-2-phenyl-acetamide]: the IC50 in series [3] fell in the range of 100 to 500 nM.
For `CCN1CCN(CC(=O)Nc2ccc(-c3cccc4c(=O)cc(N5CCOCC5)oc34)c3sc4ccccc4c23)CC1` [KU-0060648], the “inhibition of kinases of the PI3K isoenzyme family” value in series [4] is on record as “potently inhibited”.
Turning to `O=c1cc(N2CCOCC2)oc2c(-c3ccccc3)cccc12` [LY294002], on DNA-PK [5], the IC50 was 1250 nM. The “increase in sensitivity to ionising irradiation” value in the series on mammal cells is recorded as “only a weak increase in sensitivity”.
With `O=c1cc(N2CCOCC2)oc2c(-c3cccc4c3sc3ccccc34)cccc12` [NU-7441], the IC50 at DNA-PK [6] is 20 nM.
